Experiment [1] relates to aldose reductase. As to conditions: reported in the literature; cited from earlier work.
Experiment [2] has as its target T1, aldose reductase (Bos taurus, UniProt P16116).
T1 construct: preparation of the enzyme from bovine lens; from tissue; host or cells: bovine lens
Put plainly: in vitro aldose reductase inhibition (enzyme from bovine lens, modified Hayman and Kinoshita procedure). As to conditions: for inhibition at 10 µM: 10^-5 molar, read-out: % Inhibition at Different Molar Concentrations (in vitro), 10^-5; for inhibition at 1 µM: 10^-6 molar, read-out: % Inhibition at Different Molar Concentrations (in vitro), 10^-6; for inhibition at 0.1 µM: 10^-7 molar, read-out: % Inhibition at Different Molar Concentrations (in vitro), 10^-7. It is filed as biochemical. Here is the method:
In the present case the procedure of Hayman and Kinoshita is modified in that the final chromatography step is omitted in the preparation of the enzyme from bovine lens.
The following results were obtained when the compounds of this invention were evaluated in the above in vitro test.

As to `O=C(O)CN1C(=O)c2cccc3cccc(c23)C1=O` [1,3-Dioxo-1H-benz[de]isoquinoline-2(3H)-acetic acid], the “inhibition of aldose reductase (in words)” value in experiment [1] is reported as “effective inhibitor of aldose reductase”.

In the case of `COc1c(Cl)cc(C(=S)N(C)CC(=O)O)c2cccc(S(=O)(=O)N(C)C)c12` [N-[[3-chloro-4-methoxy-5-(dimethylaminosulfonyl)-1-naphthalenyl]thioxomethyl]-N-methylglycine], in experiment [2], the inhibition at 10 µM came out at 91%, the inhibition at 1 µM is 67% and the inhibition at 0.1 µM was determined as 19%.

With `COc1ccc(C(=S)N(C)CC(=O)O)c2cccc(S(=O)(=O)N(C)C)c12` [N-[[4-methoxy-5-(dimethylaminosulfonyl)-1-naphthalenyl]thioxomethyl]-N-methylglycine], in experiment [2], the inhibition at 10 µM was 80%, the inhibition at 1 µM was 35% and the inhibition at 0.1 µM amounted to 6%.

As for `O=C(O)[C@@H]1CCCN1C(=S)c1cccc2c(Br)cccc12` [R^1 R^2=CH2 CH2 CH2, R^3=5-Br, n=O, N-[(5-bromo-1-naphthalenyl)thioxomethyl]-L-proline], in experiment [2], the inhibition at 10 µM was found to be 56% and the inhibition at 1 µM worked out at 26%.

Regarding `O=C(O)CN(C(=S)c1cccc2c(Br)cccc12)c1ccc(Cl)cc1` [R^1=4-Cl--C6 H4, R^2=H, R^3=5-Br, n=O, N-[(5-bromo-1-naphthalenyl)thioxomethyl]-N-(4-chlorophenyl)glycine], in experiment [2], the inhibition at 10 µM was found to be 86%, the inhibition at 1 µM came to 80% and the inhibition at 0.1 µM was 39%.

As to `O=C(O)CN(CC(=O)O)C(=S)c1cccc2c(Br)cccc12` [R^1=CH2 COOH, R^2=H, R^3=5-Br, n=O, N-[(5-bromo-1-naphthalenyl)thioxomethyl]-N-(carboxymethyl)glycine], in experiment [2], the inhibition at 10 µM came out at 46% and the inhibition at 1 µM was determined as 7%.

`CC(C(=O)O)N(C)C(=S)c1cccc2c(Br)cccc12` (centres unmarked) [R^1=CH3, R^2=CH3, R^3=5-Br, n=O *]: in experiment [2], the inhibition at 10 µM worked out at 18%.

Turning to `CN(CC(=O)O)C(=S)c1cc(Br)cc2ccccc12` [R^1=CH3, R^2=H, R^3=3-Br, n=O, N-[(3-Bromo-1-naphthalenyl)thioxomethyl]-N-methylglycine], in experiment [2], the inhibition at 10 µM came out at 90%, the inhibition at 1 µM is 74% and the inhibition at 0.1 µM is 28%.

As to `CN(CCCC(=O)O)C(=S)c1cccc2c(Br)cccc12` [R^1=CH3, R^2=H, R^3=5-Br, n=2, N-[(5-bromo-1-naphthalenyl)thioxomethyl]-N-methyl-4-aminobutanoic acid], the inhibition at 10 µM in experiment [2] came out at 37%.

As for `CN(CC(=O)O)C(=S)c1cccc2cc(Br)ccc12` [R^1=CH3, R^2=H, R^3=6-Br, n=O, N-[(6-bromo-1-naphthalenyl)thioxomethyl)-N-methylglycine], in experiment [2], the inhibition at 10 µM was found to be 91%, the inhibition at 1 µM turned out to be 75% and the inhibition at 0.1 µM was 18%.

As for `CN(CC(=O)O)C(=S)c1cccc2ccc(Br)cc12` [R^1=CH3, R^2=H, R^3=7-Br, n=O, N-[(7-bromo-1-naphthalenyl)thioxomethyl]-N-methylglycine], in experiment [2], the inhibition at 10 µM was 86%, the inhibition at 1 µM stood at 58% and the inhibition at 0.1 µM is 15%.

For `O=C1NC(=O)[C@@]2(CCOc3ccc(F)cc32)N1` [sorbinil, (S)-6-Fluoro-2,3-dihydrospiro(4H-1-benzopyran-4,4'-imidazolidine)-2',5'-dione], in experiment [1], the “inhibition of aldose reductase (in words)” value was “aldose reductase inhibiting properties”.

Source of the values: patent US4391816A, “N-(Naphthalenylthioxomethyl)aminoacid derivatives” (Ayerst, McKenna & Harrison Inc., priority 1981, dated 1983).
